Test results from paper PMC3038857, “Using Nuclear Receptor Activity to Stratify Hepatocarcinogens” (PLoS ONE, 2011).

What was measured:
Type in all cases: cell-based
PPARa (PPARA) = target: T1, PPARa (PPARA) (Homo sapiens, UniProt Q07869); experiment: NCGC_PPARa_Agonist: GAL4 BLAM Reporter gene assay: PPARa; design: expressed in transfected cells; host or cells: HEK293; conditions: agonist mode
T1 sequence (Q07869 1-468): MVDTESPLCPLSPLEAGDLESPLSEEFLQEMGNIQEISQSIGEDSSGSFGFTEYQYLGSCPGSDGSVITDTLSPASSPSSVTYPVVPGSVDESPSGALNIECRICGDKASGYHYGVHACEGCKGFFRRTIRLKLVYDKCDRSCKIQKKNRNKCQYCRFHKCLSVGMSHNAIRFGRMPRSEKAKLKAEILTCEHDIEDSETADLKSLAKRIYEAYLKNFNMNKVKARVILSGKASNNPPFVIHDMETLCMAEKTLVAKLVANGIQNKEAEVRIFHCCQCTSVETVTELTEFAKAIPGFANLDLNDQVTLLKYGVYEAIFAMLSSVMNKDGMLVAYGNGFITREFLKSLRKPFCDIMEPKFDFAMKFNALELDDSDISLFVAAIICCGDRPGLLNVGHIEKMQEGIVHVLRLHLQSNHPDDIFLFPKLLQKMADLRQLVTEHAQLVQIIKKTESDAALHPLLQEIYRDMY
Description: These assays measure binding constants and enzyme inhibition values for nuclear receptors. The targets include [drawing 67] , [drawing 68] , [drawing 69] , [drawing 70] , [drawing 71] , [drawing 72] , [drawing 73] , [drawing 74] , [drawing 75] and [drawing 76] . Each of the nuclear receptor targets was measured in agonist mode. Assays were run at the NIH Chemical Genomics Center (Rockville, MD).
Cell-based HTS Assays: These assays measuring binding constants and enzyme inhibition values for nuclear receptors. The targets include AR, ER, FXR, LXR, PPARα, PPARδ, PPARγ, RXRα, RXRβ and PXR. Each of the nuclear receptor targets was measured in both agonist and antagonist mode, but the antagonist data is still undergoing analysis due to possible interference between cytotoxicity and assay activity, so antagonist mode data were not used in the present analysis. Assays were run at the NIH Chemical Genomics Center (Rockville, MD) as part of the Tox21 collaboration. […] The R^2 was required to be ≥0.5. Values where only the highest concentration exceeded 50% activity were excluded to eliminate weak or false positives. Detailed description of the methods, data and analysis methods for this dataset will be presented in a separate publication.

CYP1A1 = experiment: CLZD_CYP1A1: Change in expression of CYP1A1 (primary human hepatocytes); conditions: 24 hr
How it was run: (§1)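 Read-out: mRNA change by multiplexed quantitative nuclease protection assay. Primary human hepatocytes; 5 concentrations, 0.004-40 µM; exposures 6, 24, 48 hr.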

CYP2B6 = experiment: CLZD_CYP2B6: Change in expression of CYP2B6 (primary human hepatocytes); conditions: 24 hr
How it was run: as §1

ABCB1 = experiment: CLZD_ABCB1: Change in expression of ABCB1 (primary human hepatocytes); conditions: 24 hr
Description: This is a collection of multiplexed gene expression assays focused on Phase I and II xenobiotic metabolizing enzymes and transporters. Human primary cell cultures were treated with chemicals at 5 concentrations (0.004-40 [drawing 42] M) for 6, 24 and 48 hr. Concentration- and time-response profiles of chemicals were measured by the expression of key nuclear receptor target genes, activities of CYP1A enzymes (EROD), and cell morphology. Fourteen gene targets were monitored by quantitative nuclease protection assay including: six representative cytochrome P-450 genes, four hepatic transporters, three Phase II conjugating enzymes, and one endogenous metabolism gene involved in cholesterol synthesis. The target genes associated with nuclear receptor pathways are as follows: [drawing 43] and [drawing 44] with [drawing 45]; [drawing 46] , [drawing 47] , [drawing 48] , [drawing 49] , [drawing 50] and [drawing 51] with [drawing 52]; [drawing 53] , [drawing 54] , [drawing 55] and [drawing 56] with [drawing 57]; [drawing 58] with [drawing 59]; and [drawing 60] with [drawing 61] . Assays were run in primary human hepatocyte cultures by CellzDirect Invitrogen Inc. (Durham, NC), in collaboration with EPA.
Multiplexed Gene Expression in Human Primary Hepatocytes: This is a collection of multiplexed gene expression assays focused on Phase I and II metabolic enzymes and transporters. […] Fourteen gene targets were monitored by quantitative nuclease protection assay: six representative cytochrome P450 genes, four hepatic transporters, three Phase II conjugating enzymes, and one endogenous metabolism gene involved in cholesterol synthesis. Cells were exposed at 5 concentrations (0.004-40 µM) for 6, 24 or 48 hr. Gene targets are sentinels for five nuclear receptor signaling pathways: AhR, CAR, PXR, FXR, and PPARα. All gene are associated with nuclear receptor pathways: CYP1A1 and CYP1A2 with AHR; ABCB1, ABCG2, CYP2B6, CYP2C9, CYP2C19 and UGT1A1 with CAR; CYP3A4, GSTA2, SLCO1B1 and SULT2A1 with PXR; HMGCS2 with PPARA; and ABCB11 with FXR. […] Detailed description of the methods, data and analysis methods for this dataset will be presented in a separate publication.

[1] = scale not given, looks like -log10 of molar active concentration, 0 = no activity

| Structure (SMILES) | NCGC_PPARa_Agonist (PPARa (PPARA); [1]) | CLZD_CYP1A1_24 (CYP1A1; [1]) | CLZD_CYP2B6_24 (CYP2B6; [1]) | CLZD_ABCB1_24 (ABCB1; [1]) | CLZD_CYP2B6_24 (CYP2B6) | NCGC_PPARa_Agonist (PPARa (PPARA)) | CLZD_CYP1A1_24 (CYP1A1) | CLZD_ABCB1_24 (ABCB1) |
| --- | --- | --- | --- | --- | --- | --- | --- | --- |
| COC(=O)c1ccccc1CS(=O)(=O)NC(=O)Nc1nc(OC)cc(OC)n1 [r33] | 0 | 0 | 0 | 0 |  |  |  |  |
| CC(C)N1C(=O)c2ccccc2NS1(=O)=O [r37] | 0 | 0 | 0 | 0 |  |  |  |  |
| COc1ccc(-c2ccccc2)cc1NNC(=O)OC(C)C [r38] | 0 | 4.891 | 5.354 | 0 |  |  |  |  |
| Cc1c(COC(=O)C2C(/C=C(\Cl)C(F)(F)F)C2(C)C)cccc1-c1ccccc1 (stereo not drawn) [r39] | 0 | 4.56 | 5.042 | 4.829 |  |  |  |  |
| CC(C)(c1ccc(O)cc1)c1ccc(O)cc1 [r40] | 0 | 0 | 0 | 0 |  |  |  |  |
| OB(O)O [r41] | 0 |  |  | 0 |  |  |  |  |
| O=C(Nc1ccccc1-c1ccc(Cl)cc1)c1cccnc1Cl [r42] | 0 | 4.852 | 5.164 | 0 |  |  |  |  |
| CCC(C)n1c(=O)[nH]c(C)c(Br)c1=O (stereo not drawn) [r43] | 0 | 4.897 | 4.936 | 0 |  |  |  |  |
| N#Cc1cc(Br)c(O)c(Br)c1 [r44] | 4.173 | 0 | 0 | 0 |  |  |  |  |
| CC(C)N1C(=O)N(c2ccccc2)CS/C1=N\C(C)(C)C [r45] | 0 | 0 | 5.247 | 4.531 |  |  |  |  |
| CCCCOCN(C(=O)CCl)c1c(CC)cccc1CC [r46] | 0 | 5.141 | 5.29 | 0 |  |  |  |  |
| C=CCOC(=O)C(C)(C)OC(=O)c1cc(-n2c(=O)cc(C(F)(F)F)n(C)c2=O)ccc1Cl [r47] | 0 |  |  | 0 |  |  |  |  |
| CCC(C)Nc1c([N+](=O)[O-])cc(C(C)(C)C)cc1[N+](=O)[O-] (stereo not drawn) [r48] | 0 | 0 | 5.323 | 0 |  |  |  |  |
| CCSC(=O)N(CC(C)C)CC(C)C [r49] | 0 | 0 | 6.583 | 0 |  |  |  |  |
| O=C1C2CC=CCC2C(=O)N1SC(Cl)(Cl)Cl (stereo not drawn) [r51] | 0 | 0 | 0 | 0 |  |  |  |  |
| CNC(=O)Oc1cccc2ccccc12 [r52] | 0 |  |  | 0 |  |  |  |  |
| CC1=C(C(=O)Nc2ccccc2)SCCO1 [r53] | 0 | 4.822 | 4.923 | 0 |  |  |  |  |

| Structure (SMILES) | NCGC_PPARa_Agonist (PPARa (PPARA); [1]) | CLZD_CYP1A1_24 (CYP1A1; [1]) | CLZD_CYP2B6_24 (CYP2B6; [1]) | CLZD_ABCB1_24 (ABCB1; [1]) | CLZD_CYP2B6_24 (CYP2B6) | NCGC_PPARa_Agonist (PPARa (PPARA)) | CLZD_CYP1A1_24 (CYP1A1) | CLZD_ABCB1_24 (ABCB1) |
| --- | --- | --- | --- | --- | --- | --- | --- | --- |
| CCOC(=O)C(Cl)Cc1cc(-n2nc(C)n(C(F)F)c2=O)c(F)cc1Cl (stereo not drawn) [r54] | 0 | 0 | 5.057 | 0 |  |  |  |  |
| Nc1cnn(-c2ccccc2)c(=O)c1Cl [r56] | 0 | 0 | 0 | 0 |  |  |  |  |
| COc1cc(Cl)c(OC)cc1Cl [r57] | 0 | 0 | 5.434 | 0 |  |  |  |  |
| N#Cc1c(Cl)c(Cl)c(Cl)c(C#N)c1Cl [r58] | 0 | 0 | 0 | 0 |  |  |  |  |
| CC(C)OC(=O)Nc1cccc(Cl)c1 [r59] | 0 | 0 | 4.931 | 0 |  |  |  |  |
| C#CCC1=C(C)[C@H](OC(=O)[C@H]2[C@H](C=C(C)C)C2(C)C)CC1=O [r249] |  |  |  |  | 5.011 |  |  |  |
| CCCN(CCC)c1c([N+](=O)[O-])cc(C(F)(F)F)c(N)c1[N+](=O)[O-] [r252] |  |  |  |  | 5.057 | 4.688 | 5.053 |  |
| CSc1nc(NC(C)C)nc(NC(C)C)n1 [r256] |  |  |  |  | 5.237 |  | 5.071 |  |
| CCCC1COC(Cn2cncn2)(c2ccc(Cl)cc2Cl)O1 (stereo not drawn) [r262] |  |  |  |  | 6.312 |  | 4.952 | 5.099 |
| CC(C)=CC1C(C(=O)OCc2coc(Cc3ccccc3)c2)C1(C)C (stereo not drawn) [r280] |  |  |  |  | 5.057 |  |  |  |
| CCc1ccc(C(=O)NN(C(=O)c2cc(C)cc(C)c2)C(C)(C)C)cc1 [r290] |  |  |  |  | 5.246 |  | 5.222 |  |
| CCc1nn(C)c(C(=O)NCc2ccc(C(C)(C)C)cc2)c1Cl [r291] |  |  |  |  | 5.278 |  | 4.87 |  |
| COc1cccc(C(=O)NN(C(=O)c2cc(C)cc(C)c2)C(C)(C)C)c1C [row 202] |  |  |  |  | 5.305 |  |  |  |
| CCc1cccc(C)c1N(C(=O)CCl)C(C)COC (stereo not drawn) [row 208] |  |  |  |  | 5.27 |  |  |  |
| CCN(CC)C(=O)C(C)Oc1cccc2ccccc12 (stereo not drawn) [row 219] |  |  |  |  | 4.599 |  | 4.557 |  |
| CC(C)Oc1cc(-n2nc(C(C)(C)C)oc2=O)c(Cl)cc1Cl [row 225] |  |  |  |  | 6.222 |  | 4.998 |  |
